≈ marks a conversion by molar mass, not a printed value. Calls of active or inactive are those of the source. The calls are words filed in the database; no cut-off is given here. Non-standard residues stand in square brackets, D forms with d. Residues, ends and D or L forms follow the SMILES beside them. Groups on a side chain read outwards from the residue. *: point of attachment. Lys(α,ε-(ArgTrp)2) = N=C(N)NCCC[C@H](N)C(=O)N[C@@H](Cc1c[nH]c2ccccc12)C(=O)NCCCC[C@H](NC(=O)[C@H](Cc1c[nH]c2ccccc12)NC(=O)[C@@H](N)CCCNC(=N)N)C(=O)*; βAla = NCCC(=O)O
Tests used:
Acinetobacter baumannii [1] = experiment: Antibacterial activity against multidrug-resistant Acinetobacter baumannii ATCC BAA-747 assessed as growth inhibition measured over 400 generation period by standard broth microdilution assay; type: functional, organism-based
Staphylococcus aureus [2] = experiment: Antibacterial activity against multidrug-resistant Staphylococcus aureus ATCC BAA-44 assessed as growth inhibition measured over 400 generation period by standard broth microdilution assay; type: functional, organism-based
Escherichia coli [3] = experiment: Antibacterial activity against ampicillin and streptomycin-resistant Escherichia coli D31 assessed as growth inhibition measured over 400 generation period by standard broth microdilution assay; type: functional, organism-based
Staphylococcus aureus [4] = experiment: Antibacterial activity against multidrug-resistant Staphylococcus aureus ATCC BAA-44 assessed as growth inhibition after 18 hrs by standard broth microdilution assay; type: functional, organism-based; settings: ATCC BAA-44, 18 h
[5] = Induction of hemolysis in sheep erythrocytes after 60 mins by spectrophotometer analysis; type: cell-based, Ovis aries, Erythrocyte; settings: read-out: HD50
Escherichia coli [6] = experiment: Antibacterial activity against ampicillin and streptomycin-resistant Escherichia coli D31 assessed as growth inhibition after 18 hrs by standard broth microdilution assay; type: functional, organism-based; settings: D31, 18 h
Acinetobacter baumannii [7] = experiment: Antibacterial activity against multidrug-resistant Acinetobacter baumannii ATCC BAA-747 assessed as growth inhibition measured over 400 generation period by standard broth microdilution assay relative to 50% growth inhibition after first day; type: functional
Escherichia coli [8] = experiment: Antibacterial activity against ampicillin and streptomycin-resistant Escherichia coli D31 assessed as growth inhibition measured over 400 generation period by standard broth microdilution assay relative to 50% growth inhibition after first day; type: functional
Acinetobacter baumannii [9] = experiment: Antibacterial activity against multidrug-resistant Acinetobacter baumannii ATCC BAA-747 assessed as growth inhibition after 18 hrs by standard broth microdilution assay; type: functional, organism-based; settings: ATCC BAA-747, 18 h
Staphylococcus aureus [10] = experiment: Antibacterial activity against multidrug-resistant Staphylococcus aureus ATCC BAA-44 assessed as growth inhibition measured over 400 generation period by standard broth microdilution assay relative to 50% growth inhibition after first day; type: functional
[11] = Ratio of compound hemolytic index to indolicidin hemolytic index for ratio of HD50 for sheep erythrocytes to IC50 for Staphylococcus aureus ATCC BAA-44
[12] = Ratio of compound hemolytic index to indolicidin hemolytic index for ratio of HD50 for sheep erythrocytes to IC50 for Escherichia coli D31

Molecule	IC50 (Staphylococcus aureus [4])	HC50 at 1 h [5]	IC50 (Escherichia coli [6])	IC50 (Acinetobacter baumannii [9])	also measured
CC[C@H](C)[C@H](NC(C)=O)C(=O)N[C@@H](CC(C)C)C(=O)N1CCC[C@H]1C(=O)N[C@@H](Cc1c[nH]c2ccccc12)C(=O)N[C@@H](CCCCN)C(=O)N[C@@H](Cc1c[nH]c2ccccc12)C(=O)N1CCC[C@H]1C(=O)N[C@@H](Cc1c[nH]c2ccccc12)C(=O)N[C@@H](Cc1c[nH]c2ccccc12)C(=O)N1CCC[C@H]1C(=O)N[C@@H](Cc1c[nH]c2ccccc12)C(=O)N[C@@H](CCCNC(=N)N)C(=O)N[C@@H](CCCNC(=N)N)C(N)=O					growth inhibition (GI) (Acinetobacter baumannii [1]): Active; growth inhibition (GI) (Staphylococcus aureus [2]): Active; growth inhibition (GI) (Escherichia coli [3]): Active
N=C(N)NCCC[C@H](NC(=O)[C@H](Cc1c[nH]c2ccccc12)NC(=O)[C@@H](N)CCCNC(=N)N)C(=O)N[C@@H](Cc1c[nH]c2ccccc12)C(=O)NCCCC[C@H](NC(=O)[C@H](Cc1c[nH]c2ccccc12)NC(=O)[C@H](CCCNC(=N)N)NC(=O)[C@H](Cc1c[nH]c2ccccc12)NC(=O)[C@@H](N)CCCNC(=N)N)C(=O)NCCCC[C@H](NC(=O)[C@H](CCCCNC(=O)[C@H](Cc1c[nH]c2ccccc12)NC(=O)[C@H](CCCNC(=N)N)NC(=O)[C@H](Cc1c[nH]c2ccccc12)NC(=O)[C@@H](N)CCCNC(=N)N)NC(=O)[C@H](Cc1c[nH]c2ccccc12)NC(=O)[C@H](CCCNC(=N)N)NC(=O)[C@H](Cc1c[nH]c2ccccc12)NC(=O)[C@@H](N)CCCNC(=N)N)C(=O)NCCC(N)=O (HELM PEPTIDE1{R.W.R.W.K.K.[bAla].[am]}|PEPTIDE2{R.W.R.W}|PEPTIDE3{R.W.R.W.K}|PEPTIDE4{R.W.R.W}$PEPTIDE1,PEPTIDE2,5:R3-4:R2|PEPTIDE3,PEPTIDE4,5:R3-4:R2|PEPTIDE1,PEPTIDE3,6:R3-5:R2$$$V2.0)	23.6 µg/mL (≈ 7.35 µM)	131 µg/mL	16.4 µg/mL (≈ 5.11 µM)		
GENTAMICIN					fold change (FC) (Acinetobacter baumannii [7]): 8; fold change (FC) (Escherichia coli [8]): 13
NCCCC[C@H](N)C(=O)N[C@@H](Cc1ccc(O)cc1)C(=O)NCCCC[C@H](NC(=O)[C@H](Cc1ccc(O)cc1)NC(=O)[C@@H](N)CCCCN)C(=O)NCCCC[C@H](NC(=O)[C@H](CCCCNC(=O)[C@H](Cc1ccc(O)cc1)NC(=O)[C@@H](N)CCCCN)NC(=O)[C@H](Cc1ccc(O)cc1)NC(=O)[C@@H](N)CCCCN)C(=O)NCCC(N)=O	240 µg/mL (≈ 147 µM)	3740 µg/mL	84.4 µg/mL (≈ 51.5 µM)	360 µg/mL (≈ 220 µM)	
O=C(O)c1cn(C2CC2)c2cc(N3CCNCC3)c(F)cc2c1=O [CIPROFLOXACIN]					fold change (FC) (Acinetobacter baumannii [7]): 43
N=C(N)NCCC[C@H](NC(=O)[C@H](Cc1c[nH]c2ccccc12)NC(=O)[C@H](CCCNC(=N)N)NC(=O)[C@H](Cc1c[nH]c2ccccc12)NC(=O)[C@@H](N)CCCNC(=N)N)C(=O)N[C@@H](Cc1c[nH]c2ccccc12)C(=O)NCCCC[C@H](NC(=O)[C@H](Cc1c[nH]c2ccccc12)NC(=O)[C@H](CCCNC(=N)N)NC(=O)[C@H](Cc1c[nH]c2ccccc12)NC(=O)[C@H](CCCNC(=N)N)NC(=O)[C@H](Cc1c[nH]c2ccccc12)NC(=O)[C@@H](N)CCCNC(=N)N)C(=O)NCCCC[C@H](NC(=O)[C@H](CCCCNC(=O)[C@H](Cc1c[nH]c2ccccc12)NC(=O)[C@H](CCCNC(=N)N)NC(=O)[C@H](Cc1c[nH]c2ccccc12)NC(=O)[C@H](CCCNC(=N)N)NC(=O)[C@H](Cc1c[nH]c2ccccc12)NC(=O)[C@@H](N)CCCNC(=N)N)NC(=O)[C@H](Cc1c[nH]c2ccccc12)NC(=O)[C@H](CCCNC(=N)N)NC(=O)[C@H](Cc1c[nH]c2ccccc12)NC(=O)[C@H](CCCNC(=N)N)NC(=O)[C@H](Cc1c[nH]c2ccccc12)NC(=O)[C@@H](N)CCCNC(=N)N)C(=O)NCCC(N)=O (HELM PEPTIDE1{R.W.R.W.R.W.K.K.[bAla].[am]}|PEPTIDE2{R.W.R.W.R.W.K}|PEPTIDE3{R.W.R.W.R.W}|PEPTIDE4{R.W.R.W.R.W}$PEPTIDE1,PEPTIDE4,7:R3-6:R2|PEPTIDE1,PEPTIDE2,8:R3-7:R2|PEPTIDE2,PEPTIDE3,7:R3-6:R2$$$V2.0)	31.7 µg/mL (≈ 6.92 µM)	365 µg/mL	20.8 µg/mL (≈ 4.54 µM)		
NCCCC[C@H](N)C(=O)N[C@@H](Cc1c[nH]c2ccccc12)C(=O)NCCCC[C@H](NC(=O)[C@H](Cc1c[nH]c2ccccc12)NC(=O)[C@@H](N)CCCCN)C(=O)NCCCC[C@H](NC(=O)[C@H](CCCCNC(=O)[C@H](Cc1c[nH]c2ccccc12)NC(=O)[C@@H](N)CCCCN)NC(=O)[C@H](Cc1c[nH]c2ccccc12)NC(=O)[C@@H](N)CCCCN)C(=O)NCCC(N)=O	23.3 µg/mL (≈ 13.5 µM)	1460 µg/mL	30.6 µg/mL (≈ 17.7 µM)	52 µg/mL (≈ 30.1 µM)	
NCCCC[C@H](N)C(=O)N[C@@H](Cc1ccccc1)C(=O)NCCCC[C@H](NC(=O)[C@H](Cc1ccccc1)NC(=O)[C@@H](N)CCCCN)C(=O)NCCCC[C@H](NC(=O)[C@H](CCCCNC(=O)[C@H](Cc1ccccc1)NC(=O)[C@@H](N)CCCCN)NC(=O)[C@H](Cc1ccccc1)NC(=O)[C@@H](N)CCCCN)C(=O)NCCC(N)=O	145 µg/mL (≈ 92.1 µM)	2500 µg/mL	77 µg/mL (≈ 48.9 µM)	175 µg/mL (≈ 111 µM)	
CN[C@H](CC(C)C)C(=O)N[C@H]1C(=O)N[C@@H](CC(N)=O)C(=O)N[C@H]2C(=O)N[C@H]3C(=O)N[C@H](C(=O)N[C@H](C(=O)O)c4cc(O)cc(O)c4-c4cc3ccc4O)[C@H](O)c3ccc(c(Cl)c3)Oc3cc2cc(c3O[C@@H]2O[C@H](CO)[C@@H](O)[C@H](O)[C@H]2O[C@H]2C[C@](C)(N)[C@H](O)[C@H](C)O2)Oc2ccc(cc2Cl)[C@H]1O [VANCOMYCIN]					fold change (FC) (Staphylococcus aureus [10]): 2.5
N=C(N)NCCC[C@H](NC(=O)[C@H](Cc1c[nH]c2ccccc12)NC(=O)[C@H](CCCNC(=N)N)NC(=O)[C@H](Cc1c[nH]c2ccccc12)NC(=O)[C@H](CCCNC(=N)N)NC(=O)[C@H](Cc1c[nH]c2ccccc12)NC(=O)[C@@H](N)CCCNC(=N)N)C(=O)N[C@@H](Cc1c[nH]c2ccccc12)C(=O)O (H-RWRWRWRW-OH)					growth inhibition (GI) (Acinetobacter baumannii [1]): Active; growth inhibition (GI) (Staphylococcus aureus [2]): Active; growth inhibition (GI) (Escherichia coli [3]): Active
N=C(NCCCCCCNC(=N)NC(=N)Nc1ccc(Cl)cc1)NC(=N)Nc1ccc(Cl)cc1 [CHLORHEXIDINE]					fold change (FC) (Escherichia coli [8]): 5; fold change (FC) (Staphylococcus aureus [10]): 2.5
N=C(N)NCCC[C@H](N)C(=O)N[C@@H](Cc1c[nH]c2ccccc12)C(=O)NCCCC[C@H](NC(=O)[C@H](Cc1c[nH]c2ccccc12)NC(=O)[C@@H](N)CCCNC(=N)N)C(=O)NCCCC[C@H](NC(=O)[C@H](CCCCNC(=O)[C@H](Cc1c[nH]c2ccccc12)NC(=O)[C@@H](N)CCCNC(=N)N)NC(=O)[C@H](Cc1c[nH]c2ccccc12)NC(=O)[C@@H](N)CCCNC(=N)N)C(=O)NCCC(N)=O (H-RWK([Trp-Arg])K(Lys(α,ε-(ArgTrp)2))[βAla]-NH2)	15 µg/mL (≈ 8.14 µM)	1960 µg/mL	3.9 µg/mL (≈ 2.12 µM)	42 µg/mL (≈ 22.8 µM)	growth inhibition (GI) (Acinetobacter baumannii [1]): Active; Ratio [11]: 5; growth inhibition (GI) (Staphylococcus aureus [2]): Active; growth inhibition (GI) (Escherichia coli [3]): Active; Ratio [12]: 10
NC(=O)CCNC(=O)[C@H](CCCCNC(=O)[C@H](CCCCNC(=O)[C@H](Cc1c[nH]c2ccccc12)NC(=O)[C@@H](N)Cc1cnc[nH]1)NC(=O)[C@H](Cc1c[nH]c2ccccc12)NC(=O)[C@@H](N)Cc1cnc[nH]1)NC(=O)[C@H](CCCCNC(=O)[C@H](Cc1c[nH]c2ccccc12)NC(=O)[C@@H](N)Cc1cnc[nH]1)NC(=O)[C@H](Cc1c[nH]c2ccccc12)NC(=O)[C@@H](N)Cc1cnc[nH]1	43.3 µg/mL (≈ 24.5 µM)	1860 µg/mL	30.6 µg/mL (≈ 17.3 µM)	82.7 µg/mL (≈ 46.8 µM)	
N=C(N)NCCC[C@H](N)C(=O)N[C@@H](Cc1ccccc1)C(=O)NCCCC[C@H](NC(=O)[C@H](Cc1ccccc1)NC(=O)[C@@H](N)CCCNC(=N)N)C(=O)NCCCC[C@H](NC(=O)[C@H](CCCCNC(=O)[C@H](Cc1ccccc1)NC(=O)[C@@H](N)CCCNC(=N)N)NC(=O)[C@H](Cc1ccccc1)NC(=O)[C@@H](N)CCCNC(=N)N)C(=O)NCCC(N)=O	180 µg/mL (≈ 107 µM)	2780 µg/mL	30 µg/mL (≈ 17.8 µM)	160 µg/mL (≈ 94.9 µM)	
N=C(N)NCCC[C@H](N)C(=O)N[C@@H](Cc1ccc(O)cc1)C(=O)NCCCC[C@H](NC(=O)[C@H](Cc1ccc(O)cc1)NC(=O)[C@@H](N)CCCNC(=N)N)C(=O)NCCCC[C@H](NC(=O)[C@H](CCCCNC(=O)[C@H](Cc1ccc(O)cc1)NC(=O)[C@@H](N)CCCNC(=N)N)NC(=O)[C@H](Cc1ccc(O)cc1)NC(=O)[C@@H](N)CCCNC(=N)N)C(=O)NCCC(N)=O	45.7 µg/mL (≈ 26.1 µM)	2150 µg/mL	12.6 µg/mL (≈ 7.2 µM)	193 µg/mL (≈ 110 µM)	

Source: ChEMBL document CHEMBL3217498, “Structure and antimicrobial properties of multivalent short peptides” (Medchemcomm, 2011)
